What was measured:
Conditions in all cases: BNL-26 inhibitor labeled with 11C
[1] = Penetration of the brain blood vessel barrier, previous study of 11C-labeled BNL-26; type: in vivo
[2] = biological target: HDAC1 (Homo sapiens, UniProt Q13547); assay: HDAC1 inhibition, previous study of 11C-labeled BNL-26; type: biochemical
[3] = biological target: HDAC2 (Homo sapiens, UniProt Q92769); assay: HDAC2 inhibition, previous study of 11C-labeled BNL-26; type: biochemical
HDAC2, sequence (Q92769 whole entry, species assumed): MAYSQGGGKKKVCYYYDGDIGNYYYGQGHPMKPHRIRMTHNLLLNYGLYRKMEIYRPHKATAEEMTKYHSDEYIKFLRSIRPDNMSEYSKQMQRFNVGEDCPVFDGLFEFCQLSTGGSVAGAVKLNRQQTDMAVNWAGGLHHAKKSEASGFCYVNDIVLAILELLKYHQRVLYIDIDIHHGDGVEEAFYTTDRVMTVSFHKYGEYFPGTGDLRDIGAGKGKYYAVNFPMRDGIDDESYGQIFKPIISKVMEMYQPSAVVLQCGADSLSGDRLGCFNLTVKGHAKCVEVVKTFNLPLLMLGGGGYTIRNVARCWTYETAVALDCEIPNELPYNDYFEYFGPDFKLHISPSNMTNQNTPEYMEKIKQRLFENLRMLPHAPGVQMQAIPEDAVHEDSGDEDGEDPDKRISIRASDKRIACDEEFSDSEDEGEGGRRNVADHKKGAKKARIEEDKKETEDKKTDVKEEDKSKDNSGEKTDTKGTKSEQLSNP

HDAC1, sequence (Q13547 whole entry, species assumed): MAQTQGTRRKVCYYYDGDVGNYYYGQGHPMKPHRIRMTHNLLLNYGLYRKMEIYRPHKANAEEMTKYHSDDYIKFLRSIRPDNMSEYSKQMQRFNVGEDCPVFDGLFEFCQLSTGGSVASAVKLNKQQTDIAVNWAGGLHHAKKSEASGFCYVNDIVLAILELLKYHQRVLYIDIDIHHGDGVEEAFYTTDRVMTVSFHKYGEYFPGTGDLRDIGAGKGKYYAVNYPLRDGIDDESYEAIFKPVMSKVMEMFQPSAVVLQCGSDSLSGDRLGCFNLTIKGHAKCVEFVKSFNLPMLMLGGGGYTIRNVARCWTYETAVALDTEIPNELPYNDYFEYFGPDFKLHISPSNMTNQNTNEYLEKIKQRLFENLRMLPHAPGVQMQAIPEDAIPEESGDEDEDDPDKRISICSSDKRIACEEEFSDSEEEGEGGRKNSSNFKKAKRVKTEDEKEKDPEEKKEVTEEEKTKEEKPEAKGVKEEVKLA

CN(C)Cc1ccc(C(=O)Nc2cc(-c3ccccc3)ccc2N)cc1 [BNL-26, N-(4-amino-[1,1′-biphenyl]-3-yl)-4-((dimethylamino)methyl)benzamide]
ability to penetrate the brain blood vessel barrier [1]: very good
inhibitory effect of HDAC1 [2]: good inhibitory effect
inhibitory effect of HDAC2 [3]: good inhibitory effect

Source: US9603950B1, “Compounds of imaging agent with HDAC inhibitor for treatment of Alzheimer syndrome and method of synthesis thereof” (INSTITUTE OF NUCLEAR ENERGY RESEARCH, priority 2015, dated 2017)
